Reference: the supplement of paper PMC10307832

Key:
Assay in all cases: relative viability (nuclei count vs DMSO), 5 days (fraction); higher = more cells survive
[1] = compound: CC(C)(C)c1cc(NC(=O)Nc2ccc(-c3cn4c(n3)sc3cc(OCCN5CCOCC5)ccc34)cc2)no1 [Quizartinib] + COc1cc2c(Oc3ccc(NC(=O)C4(C(=O)Nc5ccc(F)cc5)CC4)cc3F)ccnc2cc1OCCCN1CCOCC1 [Foretinib] (partner 0.25 µM)
Procedure, shortened: (§1)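 Dosing by pin tool came one day after lung cancer cell lines were seeded in 1536-well plates, using either one drug or a fixed anchor-drug dose plus five library-drug doses (not always all listed) in √10 steps. After 5 days, nuclei were counted on 4× images. Relative viability is treated-well nuclei count divided by vehicle-well nuclei count, and values are medians of duplicate plates.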

[2] = compound: CC(C)(C)c1cc(NC(=O)Nc2ccc(-c3cn4c(n3)sc3cc(OCCN5CCOCC5)ccc34)cc2)no1 [Quizartinib] + C[C@@H](Oc1cc(-c2cnn(C3CCNCC3)c2)cnc1N)c1c(Cl)ccc(F)c1Cl [Crizotinib] (partner 1 µM)
Procedure, shortened: as §1

[3] = compound: CC(C)(C)c1cc(NC(=O)Nc2ccc(-c3cn4c(n3)sc3cc(OCCN5CCOCC5)ccc34)cc2)no1 [Quizartinib] + C[C@]1(O)C[C@@H](c2nc(-c3ccc4ccc(-c5ccccc5)nc4c3)c3c(N)nccn32)C1 [Linsitinib] (partner 1 µM)
Procedure, shortened: as §1

[4] = compound: COCC[n+]1c2c(n(Cc3cnccn3)c1C)C(=O)c1ccccc1C2=O [YM155] + CS(=O)(=O)N1CCN(Cc2cc3nc(-c4cccc5[nH]ncc45)nc(N4CCOCC4)c3s2)CC1 [Pictilisib] (partner 1 µM)
Procedure, shortened: as §1

Cell Line | relative viability ([1]; first compound 0.001 µM) | relative viability ([1]; first compound 0.003162 µM) | relative viability ([1]; first compound 0.01 µM) | relative viability ([1]; first compound 0.03162 µM) | relative viability ([1]; first compound 0.1 µM) | relative viability ([2]; first compound 0.001 µM) | relative viability ([2]; first compound 0.003162 µM) | relative viability ([2]; first compound 0.01 µM) | relative viability ([2]; first compound 0.03162 µM) | relative viability ([2]; first compound 0.1 µM) | relative viability ([3]; first compound 0.001 µM) | relative viability ([3]; first compound 0.003162 µM) | relative viability ([3]; first compound 0.01 µM) | relative viability ([3]; first compound 0.03162 µM) | relative viability ([3]; first compound 0.1 µM) | relative viability ([4]; first compound 0.002 µM) | relative viability ([4]; first compound 0.006325 µM) | relative viability ([4]; first compound 0.02 µM) | relative viability ([4]; first compound 0.06325 µM)
NCI-H1915 | 1.06 | 0.992 | 1.13 | 1.03 | 1.07 | 0.83 | 0.841 | 0.905 | 0.983 | 0.944 | 0.761 | 1.03 | 1.11 | 1.08 | 1.15 | 0.904 | 0.834 | 0.88 | 0.667
NCI-H1703 | 0.514 | 0.35 | 0.371 | 0.406 | 0.282 | 0.791 | 0.718 | 0.219 | 0.136 | 0.335 | 0.832 | 0.456 | 0.165 | 0.162 | 0.231 | 0.26 | 0.232 | 0.248 | 0.116
SW 1573 | 0.946 | 0.886 | 0.896 | 1.02 | 1.04 | 0.611 | 0.837 | 0.823 | 0.803 | 0.895 | 0.738 | 0.691 | 0.81 | 0.642 | 0.8 | 0.484 | 0.465 | 0.426 | 0.0949
HARA | – | 0.832 | 0.952 | 0.942 | 0.913 | 0.87 | 0.97 | 1.17 | 1.08 | 1.09 | 0.585 | 0.906 | 0.953 | 0.958 | 0.974 | 0.371 | 0.397 | 0.533 | 0.461
A549 | 0.949 | 0.975 | 1.08 | 0.818 | 1.05 | 0.703 | 0.691 | 0.879 | 0.457 | 0.686 | – | 0.49 | 0.61 | 0.611 | 0.787 | 0.511 | 0.454 | 0.378 | 0.0793
HCC-366 | 0.884 | 0.921 | 0.992 | 0.914 | 0.946 | 0.405 | 0.411 | 0.689 | 0.517 | 0.467 | 0.501 | 0.695 | 0.656 | 0.615 | 0.554 | 0.376 | 0.124 | 0.125 | 0.134
SK-MES-1 | 0.789 | 0.901 | 0.972 | 0.925 | 0.939 | 0.943 | 0.949 | 1.12 | 0.976 | 0.937 | 1.03 | 1 | 1.14 | 0.975 | 0.996 | 0.395 | 0.359 | 0.377 | 0.24
ABC-1 | 0.64 | 0.993 | 1.1 | 0.929 | 0.846 | 0.922 | 0.799 | 1.22 | 0.527 | 1.3 | 0.662 | 0.732 | 0.702 | 0.675 | 0.722 | 0.637 | 0.594 | 0.341 | 0.197
NCI-H358 | 0.613 | 0.796 | 0.634 | 0.438 | 0.642 | 0.584 | 0.558 | 0.66 | – | 0.38 | 0.592 | 0.688 | 0.768 | – | 0.698 | 0.254 | 0.349 | 0.332 | 0.249
